Measured values as given in patent US20230348437A1, “COMPOUNDS, COMPOSITIONS AND METHODS” (Denali Therapeutics Inc., priority 2020, published 2023).

How the values were obtained:
[1] = test system: NLRP3 (IL-1β release from THP-1 cells); assay: IL-1β detection in IFN-γ differentiated THP-1 cells, LPS induction and ATP, 96 well format; format: cell-based; details: Homo sapiens, IFN-γ 25 ng/mL, LPS 50 ng/mL, ATP 5 mM, IL-1β ELISA, read-out: Activity (IC50 class)
Description: Compounds as provided herein were tested in the following assay. Cell culture medium employed contained RPMI 1640 medium (89%), FBS (10%), Pen/Strep (1%), and 2-mercaptoethanol (0.05 mM). Freezing medium was made up of 90% FBS and 10% DMSO. THP-1 cells were removed from the liquid nitrogen and placed into a 37° C. water bath to thaw, until signs of ice dissipated. The cells were then added to 9 mL of warm cell culture medium and centrifuged for 5 minutes at 1000 rpm. The supernatant was discarded, and the cells were resuspended in new cell culture medium. The THP-1 cells were then split and cultured in the cell culture medium, being passaged every 2-3 days (5×10^5 cells/mL passaged every two days, 3×10^5 cells/mL passaged every three days). Cell density was maintained between 5×10^5-1.5×10^6 viable cells/mL.
To freeze, cells were resuspended with fresh freezing medium, adjusting the cell density to between 3×10^6-10×10^6 cells/mL. The cell suspension was partitioned into 1 mL aliquots per vial, and the vials were transferred to a -80° C. freezer. After one day at -80° C., the cell vials were transferred to liquid nitrogen freezer for storage.
PBST solution was prepared by mixing 3600 mL of water, 400 mL of 10X PBS, and 4 mL of Tween 20. IFN-γ solution was reconstituted with 100 µL of water to obtain a 1 mg/mL solution, which was then diluted with 0.1 % BSA to provide a 100 ng/mL solution. The IFN-γ solution was stored at -20° C. LPS was reconstituted with 1 mL of PBS solution to obtain a 1 mg/mL stock solution, which was further diluted to 50 ng/mL with serum-free medium. The LPS solution was stored at 4° C.
The 96 well plates were then incubated at 37° C. under a humidified atmosphere of 5% CO2 for 24 h.
LPS induction: When IFN-γ treatment was completed, the supernatants were discarded by hand. 100 µL of a 1X solution of LPS in serum-free medium (50 ng/mL) was added. The plates were incubated in a 37° C. incubator under a humidified atmosphere of 5% CO2 for 4 h. Sample compounds were dissolved in DMSO and the compound solutions were dispensed to the wells using a Tecan D300e digital dispenser. The final concentration of DMSO for each well was 0.5%. The plates were then incubated at 37° C. under a humidified atmosphere of 5% CO2 for 1 h. 20 µL of a 6X solution of ATP was added (final concentration per well: 5 mM), and the plates incubated at 37° C. under a humidified atmosphere of 5% CO2 for 1 h. The supernatants were then collected and analyzed using an IL-Iβ detection kit. If needed, the test samples could be stored at -20° C. until analyzed.
Compound dilution: Compound solution source plates (20 µL of a 10 mM solution of each compound was delivered to the specified wells and stored in a nitrogen cabinet until tested.
Coat Elisa plate: The captured antibody (mAb Mt175) was diluted in PBS to a concentration of 2 µg/mL, and then used to coat the ELISA plate (SIGMA-P6366) overnight at 4° C.
The antibody coat was discarded and the plate was washed 4 times with PBST. The plate was blocked by adding 25 µL/well of blocking buffer (LiCor-927-40000) with 0.1% Tween 20, then incubated for 1 h at room temperature. The blocking buffer was then discarded and the plate was washed 4 times with PBST.
One hour before test sample addition, the sample plates were allowed to thaw at room temperature, centrifuged at 1000 rpm for 1 minute, and shaken for 30 seconds. 25 µL/well of the test samples were transferred to the ELISA plate, and the plate was incubated for 2 h at room temperature.
The test samples were discarded and the ELISA plate was washed 4 times with PBST. 15 µL/well of mAb7P10-biotin at 0.5 µg/mL (1:1000) in blocking buffer was then added to the ELISA plate and it was incubated for 1 h at room temperature.
The antibody was discarded and the ELISA plate was washed 4 times with PBST. Then 15 µL/well of streptavidin-HRP diluted 1:1000 in blocking buffer was added to the ELISA plate and it was allowed to incubate for 1 h at room temperature.

[2] = test system: NLRP3 (IL-1β secretion from THP-1 cells); assay: IL-1β secretion assay in 384-well plates, PMA differentiated THP-1 cells, LPS and nigericin stimulation; format: cell-based; details: Homo sapiens; THP-1 cells, PMA 5 ng/mL, LPS 25 ng/mL, nigericin, IL-1β ELISA, 384-well; read-out: Activity

Row | SMILES | IC50 [1] | IC50 [2]
1 | CC(C)c1nn(CC(=O)N[C@H]2C[C@@](C)(O)C2)c(=O)cc1-c1cccc(F)c1 [Example 12, 2-(4-(3-fluorophenyl)-3-isopropyl-6-oxopyridazin-1(6H)-yl)-N-(cis-3-hydroxy-3-methylcyclobutyl)acetamide] | < 10 µM | 1.66 µM
2 | CC(C)c1nn(CC(=O)N[C@H]2C[C@@](C)(O)C2)c(=O)cc1-c1cccc(C(F)(F)F)c1 [Example 13, N-(cis-3-hydroxy-3-methylcyclobutyl)-2-(3-isopropyl-6-oxo-4-(3-(trifluoromethyl)pheny 1)pyridazin-1(6H)-yl)acetamide] | < 10 µM | 21.8 µM
3 | CC(C)c1nn(CC(=O)N[C@H]2C[C@@](C)(O)C2)c(=O)cc1-c1cccc(Br)c1 [Example 14, 2-(4-(3-bromophenyl)-3-isopropyl-6-oxopyridazin-1(6H)-yl)-N-(cis-3-hydroxy-3-methylcyclobutyl)acetamide] | < 10 µM | 1.49 µM
4 | CC(C)c1nn(CC(=O)N[C@H]2C[C@@](C)(O)C2)c(=O)cc1-c1cccc(Cl)c1Cl [Example 15, 2-(4-(2,3-dichlorophenyl)-3-isopropyl-6-oxopyridazin-1(6H)-yl)-N-(cis-3-hydroxy-3-methylcyclobutyl)acet amide] | < 10 µM | 3.51 µM
5 | CC(C)c1nn(CC(=O)N[C@H]2C[C@@](C)(O)C2)c(=O)cc1-c1cc(Cl)ccc1Cl [Example 16, 2-(4-(2,5-dichlorophenyl)-3-isopropyl-6-oxopyridazin-1(6H)-yl)-N-(cis-3-hydroxy-3-methylcyclobutyl)acet amide] | < 10 µM | 1.15 µM
6 | CC(C)c1nn(CC(=O)N[C@H]2C[C@@](C)(O)C2)c(=O)cc1-c1ccccn1 [Example 17] | < 10 µM | 19.5 µM
7 | C[C@]1(O)C[C@@H](NC(=O)Cn2nc(Cl)c(-c3ccccc3)cc2=O)C1 [Example 18, 2-(3-chloro-6-oxo-4-phenylpyridazin-1(6H)-yl)-N-(cis-3-hydroxy-3-methylcyclobutyl)acetamide] | > 15 µM | 50 µM
8 | COc1nn(CC(=O)N[C@H]2C[C@@](C)(O)C2)c(=O)cc1-c1ccccc1 [Example 19] | < 10 µM | 21.7 µM
9 | CC(C)c1nn(CC(=O)N[C@H]2C[C@@](C)(O)C2)c(=O)nc1-c1ccccc1 [Example 20, N-(cis-3-hydroxy-3-methylcyclobutyl)-2-(6-isopropyl-3-oxo-5-phenyl-1,2,4-triazin-2(3H)-yl)acetamide] | < 10 µM | 24 µM
